Measurements published in article PMC12736255, “Reinvestigating Pyrrol-2-One-Based Compounds: From Antimicrobial Agents to Promising Antitumor Candidates” (Pharmaceuticals, 2025).

Legend:
Assay in all cases: NCI-60 single-dose screen
[1] = test system: NCI-H226; type: cell-based, human; conditions: NCI-H226, 10^–5 M; for inhibition at 10 µM: Homo sapiens, read-out: GI (%)
Summary of the method: (§1)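 Values come from a one-concentration NCI screen in which compounds at 10^−5 M were tested on sixty human tumor cell lines.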

[2] = test system: EKVX; type: cell-based, human; conditions: Homo sapiens, 10^–5 M, read-out: GI (%)
Summary of the method: as §1

[3] = test system: MDA-MB-231/ATCC; type: cell-based; conditions: Homo sapiens, 10^–5 M, read-out: GI (%)
Summary of the method: as §1

[4] = test system: A549/ATCC; type: cell-based; conditions: Homo sapiens, 10^–5 M, read-out: GI (%)
Summary of the method: as §1

[5] = test system: NCI-H322M; type: cell-based; conditions: Homo sapiens, 10^–5 M, read-out: GI (%)
Summary of the method: as §1

[6] = test system: DU-145; type: cell-based; conditions: Homo sapiens; DU-145, 10^–5 M; read-out: GI (%)
Summary of the method: as §1

[7] = test system: HCC-2998; type: cell-based; conditions: Homo sapiens; HCC-2998, 10^–5 M; read-out: GI (%)
Summary of the method: as §1

[8] = test system: A498; type: cell-based; conditions: Homo sapiens; A498, 10^–5 M; read-out: GI (%)
Summary of the method: as §1

[9] = test system: IGROV1; type: cell-based; conditions: Homo sapiens, IGROV-1; IGROV1, 10^–5 M; read-out: GI (%)
Summary of the method: as §1

[10] = test system: SK-OV-3; type: cell-based; conditions: Homo sapiens; SK-OV-3, 10^–5 M; read-out: GI (%)
Summary of the method: as §1

[11] = test system: CAKI-1; type: cell-based; conditions: Homo sapiens; CAKI-1, 10^–5 M; read-out: GI (%)
Summary of the method: as §1

[12] = test system: OVCAR-4; type: cell-based; conditions: Homo sapiens; OVCAR-4, 10^–5 M; read-out: GI (%)
Summary of the method: as §1

[13] = test system: K-562; type: cell-based; conditions: Homo sapiens, K562; K-562, 10^–5 M; read-out: GI (%)
Summary of the method: as §1

[14] = test system: LOX IMVI; type: cell-based; conditions: Homo sapiens, 10^–5 M, read-out: GI (%)
Summary of the method: as §1

[15] = test system: SK-MEL-28; type: cell-based; conditions: Homo sapiens; SK-MEL-28, 10^–5 M; read-out: GI (%)
Summary of the method: as §1

[16] = test system: SNB-19; type: cell-based; conditions: Homo sapiens; SNB-19, 10^–5 M; read-out: GI (%)
Summary of the method: as §1

[17] = test system: 786-0; type: cell-based; conditions: Homo sapiens; 786-0, 10^–5 M; read-out: GI (%)
Summary of the method: as §1

[18] = test system: HL-60(TB); type: cell-based; conditions: Homo sapiens, 10^–5 M, read-out: GI (%)
Summary of the method: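 Each compound is applied at 10^−5 M to human tumor lines of the NCI-60 panel, which spans nine cancer types including melanoma, renal, CNS and ovarian.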

[19] = test system: CCRF-CEM; type: cell-based; conditions: Homo sapiens, 10^–5 M, read-out: GI (%)
Summary of the method: as §1

[20] = test system: SW-620; type: cell-based; conditions: Homo sapiens; SW-620, 10^–5 M; read-out: GI (%)
Summary of the method: as §1

[21] = test system: NCI-H23; type: cell-based; conditions: Homo sapiens; NCI-H23, 10^–5 M; read-out: GI (%)
Summary of the method: as §1

[22] = test system: HCT-15; type: cell-based; conditions: Homo sapiens; HCT-15, 10^–5 M; read-out: GI (%)
Summary of the method: as §1

[23] = test system: MOLT-4; type: cell-based; conditions: Homo sapiens; MOLT-4, 10^–5 M; read-out: GI (%)
Summary of the method: as §1

[24] = test system: M14; type: cell-based; conditions: Homo sapiens; M14, 10^–5 M; read-out: GI (%)
Summary of the method: as §1

[25] = test system: SF-539; type: cell-based; conditions: Homo sapiens; SF-539, 10^–5 M; read-out: GI (%)
Summary of the method: as §1

[26] = test system: HCT-116; type: cell-based; conditions: Homo sapiens; HCT-116, 10^–5 M; read-out: GI (%)
Summary of the method: as §1

[27] = test system: OVCAR-5; type: cell-based; conditions: Homo sapiens; OVCAR-5, 10^–5 M; read-out: GI (%)
Summary of the method: as §1

[28] = test system: HS 578T; type: cell-based; conditions: Homo sapiens, 10^–5 M, read-out: GI (%)
Summary of the method: as §1

[29] = test system: NCI-H522; type: cell-based; conditions: Homo sapiens; NCI-H522, 10^–5 M; read-out: GI (%)
Summary of the method: as §1

[30] = test system: SN12C; type: cell-based; conditions: Homo sapiens, 10^–5 M, read-out: GI (%)
Summary of the method: as §1

[31] = test system: T-47D; type: cell-based; conditions: Homo sapiens, T47D, 10^–5 M, read-out: GI (%)
Summary of the method: as §1

[32] = test system: UACC-257; type: cell-based; conditions: Homo sapiens; UACC-257, 10^–5 M; read-out: GI (%)
Summary of the method: as §1

[33] = test system: SNB-75; type: cell-based; conditions: Homo sapiens; SNB-75, 10^–5 M; read-out: GI (%)
Summary of the method: as §1

[34] = test system: MDA-MB-435; type: cell-based; conditions: Homo sapiens; MDA-MB-435, 10^–5 M; read-out: GI (%)
Summary of the method: as §1

[35] = test system: MCF7; type: cell-based; conditions: Homo sapiens; MCF7, 10^–5 M; read-out: GI (%)
Summary of the method: as §1

[36] = test system: RPMI-8226; type: cell-based; conditions: Homo sapiens; RPMI-8226, 10^–5 M; read-out: GI (%)
Summary of the method: as §1

[37] = test system: SK-MEL-2; type: cell-based; conditions: Homo sapiens; SK-MEL-2, 10^–5 M; read-out: GI (%)
Summary of the method: as §1

[38] = test system: UACC-62; type: cell-based; conditions: Homo sapiens; UACC-62, 10^–5 M; read-out: GI (%)
Summary of the method: as §1

Compound	inhibition at 10 µM [1]	inhibition at 10 µM [2]	inhibition at 10 µM [3]	inhibition at 10 µM [4]	inhibition at 10 µM [5]	inhibition at 10 µM [6]	inhibition at 10 µM [7]	inhibition at 10 µM [8]	inhibition at 10 µM [9]	inhibition at 10 µM [10]	inhibition at 10 µM [11]	inhibition at 10 µM [12]	inhibition at 10 µM [13]	inhibition at 10 µM [14]	inhibition at 10 µM [15]	inhibition at 10 µM [16]	inhibition at 10 µM [17]	inhibition at 10 µM [18]	inhibition at 10 µM [19]	inhibition at 10 µM [20]	other results
N#Cc1ccc(C2C=C(Nc3ccc(I)cc3)C(=O)N2c2ccc(I)cc2)cc1 (stereo not shown) [3l]	100%	100%	100%	31%	51%	37%	50%	88%	54%	75%	62%	100%	14%	89%	29%	35%	55%	0%	74%	50%	GI (%) [1]: 100 ^i1%; inhibition at 10 µM [21]: 36%; inhibition at 10 µM [22]: 21%; inhibition at 10 µM [23]: 78%; inhibition at 10 µM [24]: 63%; inhibition at 10 µM [25]: 35%; inhibition at 10 µM [26]: 48%; inhibition at 10 µM [27]: 11%; inhibition at 10 µM [28]: 100%; inhibition at 10 µM [29]: 32%; inhibition at 10 µM [30]: 59%; inhibition at 10 µM [31]: 59%; inhibition at 10 µM [32]: 21%; inhibition at 10 µM [33]: 100%; inhibition at 10 µM [34]: 19%; inhibition at 10 µM [35]: 52%; inhibition at 10 µM [36]: 83%; inhibition at 10 µM [37]: 100%; inhibition at 10 µM [38]: 17%
O=C1C(Nc2ccc(I)cc2)=CC(c2cc(C(F)(F)F)cc(C(F)(F)F)c2)N1c1ccc(I)cc1 (stereo not shown) [3f]	81%	35%	42%	16%	10%	5%	2%	90%	0%	10%	32%	69%	26%	17%	9%	19%	29%	59%	100%	20%	inhibition at 10 µM [21]: 12%; inhibition at 10 µM [22]: 17%; inhibition at 10 µM [23]: 89%; inhibition at 10 µM [24]: 0%; inhibition at 10 µM [25]: 17%; inhibition at 10 µM [26]: 43%; inhibition at 10 µM [27]: 9%; inhibition at 10 µM [28]: 100%; inhibition at 10 µM [29]: 34%; inhibition at 10 µM [30]: 61%; inhibition at 10 µM [31]: 100%; inhibition at 10 µM [32]: 0%; inhibition at 10 µM [33]: 100%; inhibition at 10 µM [34]: 0%; inhibition at 10 µM [35]: 46%; inhibition at 10 µM [36]: 43%; inhibition at 10 µM [37]: 35%; inhibition at 10 µM [38]: 0%
O=C1C(Nc2ccc(I)cc2)=CC(c2ccc(F)cc2)N1c1ccc(I)cc1 (stereo not shown) [3b]	4%	24%	6%	13%	10%	9%	0%	21%	7%	12%	13%	38%	5%	0%	8%	8%	27%	35%	74%	24%	inhibition at 10 µM [21]: 8%; inhibition at 10 µM [22]: 9%; inhibition at 10 µM [23]: 66%; inhibition at 10 µM [24]: 4%; inhibition at 10 µM [25]: 51%; inhibition at 10 µM [26]: 21%; inhibition at 10 µM [27]: 0%; inhibition at 10 µM [28]: 90%; inhibition at 10 µM [29]: 26%; inhibition at 10 µM [30]: 28%; inhibition at 10 µM [31]: 32%; inhibition at 10 µM [32]: 8%; inhibition at 10 µM [33]: 100%; inhibition at 10 µM [34]: 0%; inhibition at 10 µM [35]: 56%; inhibition at 10 µM [36]: 35%; inhibition at 10 µM [37]: 31%; inhibition at 10 µM [38]: 0%
